From patent publication US7709645B2, “Pyrrolo-pyridine kinase modulators” (SGX Pharmaceuticals, Inc., priority 2004, dated 2010)
pIC50: −log10 of the molar value.

These compounds were tested against T1, PDK1 kinase (Homo sapiens, UniProt O15530) (assay: PDK1 Bioassay (luminescence-based enzyme assay, Kinase-Glo)). Conditions: 5 μM ATP.
T1 construct: 6x Histidine tag (TEV-cleavable) (cleaved yes); made in house; host or cells: Sf9 insect cells
T1 sequence (O15530 1-556): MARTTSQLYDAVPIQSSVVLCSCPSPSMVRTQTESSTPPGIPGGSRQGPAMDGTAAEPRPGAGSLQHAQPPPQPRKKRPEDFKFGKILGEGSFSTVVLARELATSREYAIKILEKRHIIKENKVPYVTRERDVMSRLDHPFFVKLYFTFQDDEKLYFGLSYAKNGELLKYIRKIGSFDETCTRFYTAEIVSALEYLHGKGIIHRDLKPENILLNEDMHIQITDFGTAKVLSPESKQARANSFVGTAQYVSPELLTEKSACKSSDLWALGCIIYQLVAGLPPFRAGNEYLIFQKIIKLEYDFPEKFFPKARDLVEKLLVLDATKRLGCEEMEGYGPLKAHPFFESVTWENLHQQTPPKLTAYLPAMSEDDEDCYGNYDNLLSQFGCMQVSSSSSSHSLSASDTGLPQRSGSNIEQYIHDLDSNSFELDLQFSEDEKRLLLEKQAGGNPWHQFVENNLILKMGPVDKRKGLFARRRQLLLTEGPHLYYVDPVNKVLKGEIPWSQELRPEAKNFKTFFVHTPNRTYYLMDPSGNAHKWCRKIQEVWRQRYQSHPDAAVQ
Assay type: biochemical
Excerpt: In addition to the c-Abl PK/LDH coupled assay (above), homogeneous luminescence-based inhibitor screening assays were developed for c-Abl, MET, AurA, and PDK1 kinases (among others). Each of these assays made use of an ATP depletion assay (Kinase-Glo™, Promega Corporation, Madison, Wis.) to quantitate kinase activity. The Kinase-Glo™ format uses a thermostable luciferase to generate luminescent signal from ATP remaining in solution following the kinase reaction. The luminescent signal is inversely correlated with the amount of kinase activity.
Materials: PDKtide peptide substrate=KTFCGTPEYLAPEVRREPRJLSEEEQEMFRDFDYIADWC (SEQ ID NO:3) (Upstate Cat#12-401), ATP (Sigma Cat#A-3377, FW=551), HEPES buffer, pH 7.5, 10% Brij 35 (Calbiochem Cat#203728), MgCl2, Staurosporine (Streptomyces sp. Sigma Cat#85660-1MG), white Costar 384-well flat-bottom plate (VWR Cat#29444-088), PDK1 kinase (see below), Kinase-Glo™ (Promega Cat#V6712).
Stock Solutions: 1 mM PDKtide substrate (1 mg in 200 μl, as supplied by Upstate), stored at −20° C.; 100 mM HEPES buffer, pH 7.5 (5 ml 1M HEPES stock+45 ml miliQH2O); 10 mM ATP (5.51 mg/ml in dH2O) stored at −20° C. (diluted 25 μl into total of 10 ml miliQH2O daily=25 μM ATP working stock); 100 mM MgCl2; 10% Brij 35 stored at 2-8° C.; 200 μM Staurosporine, 2× Kinase-Glo™ reagent (made fresh or stored at −20° C.).
Standard Assay Setup for 384-well format (20 μl kinase reaction, 40 μl detection reaction): 10 mM MgCl2; 0.01 mM PDKtide; 1 μl test compound (in DMSO); 0.1 μg/ml PDK1 kinase; 5 μM ATP; 10 mM MgCl2; 100 mM HEPES+0.01% Brij buffer. Positive controls contained DMSO with no test compound. Negative controls contained 10 μM staurosporine. The kinase reactions were initiated at time t=0 by the addition of ATP. Kinase reactions were incubated at 21° C. for 40 min, then 20 μl of Kinase-Glo™ reagent were added to each well to quench the kinase reaction and initiate the luminescence reaction. After a 20 min incubation at 21° C., the luminescence was detected in a plate-reading luminometer.
Cell pellets produced from 6 L of Sf9 insect cells expressing human PDK1 were resuspended in a buffer containing 50 mM Tris-HCl pH 7.7 and 250 mM NaCl in a volume of approximately 40 mL per 1 L of original culture. One tablet of Roche Complete, EDTA-free protease inhibitor cocktail (Cat# 1873580) and 85 units Benzonase (Novagen Cat#70746-3)) were added per 1 L of original culture. The suspension was stirred for 1 hour at 4° C. Debris was removed by centrifugation for 30 minutes at 39,800×g at 4° C. The supernatant was decanted into a 500 mL beaker and 10 ml of a 50% slurry of Qiagen Ni-NTA Agarose (Cat#30250) that had been pre-equilibrated in 50 mM Tris-HCl pH 7.8, 500 mM NaCl, 10% Glycerol, 10 mM Imidazole, and 10 mM Methionine, were added and stirred for 30 minutes at 4° C. The sample was then poured into a drip column at 4° C. and washed with 10 column volumes of 50 mM Tris-HCl pH 7.8, 500 mM NaCl, 10% Glycerol, 10 mM Imidazole, and 10 mM Methionine. The protein was eluted using a step gradient with two column volumes each of the same buffer containing 50 mM, and 500 mM Imidazole, sequentially. The 6×Histidine tag was cleaved overnight using 40 units of TEV protease (Invitrogen Cat#10127017) per 1 mg of protein while dialyzing in 50 mM Tris-HCl pH 7.8, 500 mM NaCl, 10% Glycerol, 10 mM Imidazole, and 10 mM Methionine at 4° C. The 6× Histidine tag was removed by passing the sample over a Pharmacia 5 ml IMAC column (Cat# 17-0409-01) charged with Nickel and equilibrated in 50 mM Tris-HCl pH 7.8, 500 mM NaCl, 10% Glycerol, 10 mM Imidazole, and 10 mM Methionine. The cleaved protein eluted in the flow-through, whereas the uncleaved protein and the His-tag remained bound to the Ni-column. The cleaved protein fractions were combined and concentrated using spin concentrators. […]

pIC50	Structure (SMILES)
5.30 to 6.00	COc1ccccc1-c1c[nH]c2ncc(-c3cc[nH]c(=O)c3)cc12 [AE9]
5.30 to 6.00	COc1ccccc1-c1c[nH]c2ncc(-c3ccc4[nH]cc(CC(=O)O)c4c3)cc12 [AE10]
> 6.00	Nc1nc(-c2c[nH]c3ncc(-c4ccc5[nH]ccc5c4)cc23)cs1 [AE55]
5.30 to 6.00	COc1cc(-c2cnc3[nH]cc(-c4ccccc4OC)c3c2)ccc1O [AE64]

The remaining lines, values behind:

Structure (SMILES)	pIC50
CNC(=O)c1cc(-c2cnc3[nH]cc(-c4ccccc4OC)c3c2)cs1 [AE2]	5.30 to 6.00
COc1ccccc1-c1c[nH]c2ncc(-c3csc(C(=O)N(C)C)c3)cc12 [AE3]	5.30 to 6.00
COc1ccccc1-c1c[nH]c2ncc(-c3ccc(S(N)(=O)=O)s3)cc12 [AE11]	5.30 to 6.00
N#Cc1cc(-c2cnc3[nH]cc(-c4ccc5[nH]ccc5c4)c3c2)ccc1O [AE20]	5.30 to 6.00
COc1ccccc1-c1c[nH]c2ncc(-c3ccc(S(N)(=O)=O)cc3)cc12 [AE21]	5.30 to 6.00
Oc1cccc(-c2cnc3[nH]cc(-c4ccc(O)c(F)c4)c3c2)c1 [AE48]	5.30 to 6.00
Oc1cccc(-c2cnc3[nH]cc(-c4ccn[nH]4)c3c2)c1 [AE49]	5.30 to 6.00
COc1cc(-c2cnc3[nH]cc(-c4ccc(O)cc4)c3c2)ccc1O [AE58]	> 6.00
